Columns and labels:
SF-295 = assay: Cytotoxicity against human SF295 cells assessed as cell growth at 10 uM after 48 hrs by SRB assay relative to control; assay type: functional; conditions: SF-295, 48 h, read-out: Activity
SNB-19 = assay: Cytotoxicity against human SNB19 cells assessed as cell growth at 10 uM after 48 hrs by SRB assay relative to control; assay type: functional; conditions: SNB-19, 48 h, read-out: Activity
NCI-H23 = assay: Cytotoxicity against human NCI-H23 cells assessed as cell growth at 10 uM after 48 hrs by SRB assay relative to control; assay type: functional; conditions: NCI-H23, 48 h, read-out: Activity
KM12 = assay: Cytotoxicity against human KM12 cells assessed as cell growth at 10 uM after 48 hrs by SRB assay relative to control; assay type: functional; conditions: KM12, 48 h, read-out: Activity
M14 = assay: Cytotoxicity against human M14 cells assessed as cell growth at 10 uM after 48 hrs by SRB assay relative to control; assay type: functional; conditions: M14, 48 h, read-out: Activity
MCF7 [1] = assay: Growth inhibition of human MCF7 cells after 72 hrs by MTT assay; assay type: functional, cell-based; conditions: MCF7, 72 h
RXF 393 = assay: Cytotoxicity against human RXF393 cells assessed as cell growth at 10 uM after 48 hrs by SRB assay relative to control; assay type: functional; conditions: RXF 393, 48 h, read-out: Activity
MDA-MB-435 = assay: Cytotoxicity against human MDA-MB-435 cells assessed as cell growth at 10 uM after 48 hrs by SRB assay relative to control; assay type: functional; conditions: MDA-MB-435, 48 h, read-out: Activity
SN12C = assay: Cytotoxicity against human SN12C cells assessed as cell growth at 10 uM after 48 hrs by SRB assay relative to control; assay type: functional; conditions: read-out: Activity
HOP-62 = assay: Cytotoxicity against human HOP62 cells assessed as cell growth at 10 uM after 48 hrs by SRB assay relative to control; assay type: functional; conditions: HOP-62, 48 h, read-out: Activity
[2] = Cytotoxicity against human EKVX cells assessed as cell growth at 10 uM after 48 hrs by SRB assay relative to control; assay type: functional; conditions: read-out: Activity
MDA-MB-231 [3] = assay: Growth inhibition of human MDA-MB-231 cells after 72 hrs by MTT assay; assay type: functional, cell-based; conditions: MDA-MB-231, 72 h
MDA-MB-231 [4] = assay: Cytotoxicity against human MDA-MB-231 cells assessed as growth inhibition after 24 hrs by MTT assay; assay type: cell-based; conditions: MDA-MB-231, 24 h
NCI-H226 = assay: Cytotoxicity against human NCI-H226 cells assessed as cell growth at 10 uM after 48 hrs by SRB assay relative to control; assay type: functional; conditions: NCI-H226, 48 h, read-out: Activity
786-0 = assay: Cytotoxicity against human 786-0 cells assessed as cell growth at 10 uM after 48 hrs by SRB assay relative to control; assay type: functional; conditions: 786-0, 48 h, read-out: Activity
NCI-H460 = assay: Cytotoxicity against human NCI-H460 cells assessed as cell growth at 10 uM after 48 hrs by SRB assay relative to control; assay type: functional; conditions: NCI-H460, 48 h, read-out: Activity
[5] = Cytotoxicity against human NCI-ADR-RES cells assessed as cell growth at 10 uM after 48 hrs by SRB assay relative to control; assay type: functional; conditions: read-out: Activity
CCRF-CEM = assay: Cytotoxicity against human CCRF-CEM cells assessed as cell growth at 10 uM after 48 hrs by SRB assay relative to control; assay type: functional; conditions: read-out: Activity
[6] = Cytotoxicity against human UO31 cells assessed as cell growth at 10 uM after 48 hrs by SRB assay relative to control; assay type: functional; conditions: UO-31, 48 h, read-out: Activity
CAKI-1 = assay: Cytotoxicity against human Caki1 cells assessed as cell growth at 10 uM after 48 hrs by SRB assay relative to control; assay type: functional; conditions: CAKI-1, 48 h, read-out: Activity
U-251 = assay: Cytotoxicity against human U251 cells assessed as cell growth at 10 uM after 48 hrs by SRB assay relative to control; assay type: functional; conditions: U-251, 48 h, read-out: Activity
[7] = Cytotoxicity against human OVCAR4 cells assessed as cell growth at 10 uM after 48 hrs by SRB assay relative to control; assay type: functional; conditions: OVCAR-4, 48 h, read-out: Activity
MDA-MB-468 = assay: Cytotoxicity against human MDA-MB-468 cells assessed as cell growth at 10 uM after 48 hrs by SRB assay relative to control; assay type: functional; conditions: MDA-MB-468, 48 h, read-out: Activity
MCF7 [8] = assay: Cytotoxicity against human MCF7 cells assessed as cell growth at 10 uM after 48 hrs by SRB assay relative to control; assay type: functional; conditions: MCF7, 48 h, read-out: Activity
SK-MEL-28 = assay: Cytotoxicity against human SK-MEL-28 cells assessed as cell growth at 10 uM after 48 hrs by SRB assay relative to control; assay type: functional; conditions: SK-MEL-28, 48 h, read-out: Activity
[9] = Cytotoxicity against human PC3 cells assessed as cell growth at 10 uM after 48 hrs by SRB assay relative to control; assay type: functional; conditions: PC-3, 48 h, read-out: Activity
SW-620 = assay: Cytotoxicity against human SW620 cells assessed as cell growth at 10 uM after 48 hrs by SRB assay relative to control; assay type: functional; conditions: SW-620, 48 h, read-out: Activity
[10] = Cytotoxicity against human Hs 578T cells assessed as cell growth at 10 uM after 48 hrs by SRB assay relative to control; assay type: functional; conditions: read-out: Activity
K562 = assay: Cytotoxicity against human K562 cells assessed as cell growth at 10 uM after 48 hrs by SRB assay relative to control; assay type: functional; conditions: K562, 48 h, read-out: Activity
HCC 2998 = assay: Cytotoxicity against human HCC2998 cells assessed as cell growth at 10 uM after 48 hrs by SRB assay relative to control; assay type: functional; conditions: HCC 2998, 48 h, read-out: Activity
SK-MEL-5 = assay: Cytotoxicity against human SK-MEL-5 cells assessed as cell growth at 10 uM after 48 hrs by SRB assay relative to control; assay type: functional; conditions: SK-MEL-5, 48 h, read-out: Activity
SK-MEL-2 = assay: Cytotoxicity against human SK-MEL-2 cells assessed as cell growth at 10 uM after 48 hrs by SRB assay relative to control; assay type: functional; conditions: SK-MEL-2, 48 h, read-out: Activity
SF-539 = assay: Cytotoxicity against human SF539 cells assessed as cell growth at 10 uM after 48 hrs by SRB assay relative to control; assay type: functional; conditions: SF-539, 48 h, read-out: Activity
IGROV-1 = assay: Cytotoxicity against human IGROV1 cells assessed as cell growth at 10 uM after 48 hrs by SRB assay relative to control; assay type: functional; conditions: IGROV-1, 48 h, read-out: Activity
MDA-MB-231 [11] = assay: Antimigratory activity against human MDA-MB-231 cells after 24 hrs by wound-healing assay; assay type: functional, cell-based; conditions: MDA-MB-231, 24 h
[12] = Cytotoxicity against human UACC62 cells assessed as cell growth at 10 uM after 48 hrs by SRB assay relative to control; assay type: functional; conditions: UACC-62, 48 h, read-out: Activity

Row | Compound | growth at 10 µM (SF-295) | growth at 10 µM (SNB-19) | growth at 10 µM (NCI-H23) | growth at 10 µM (KM12) | growth at 10 µM (M14) | IC50 (MCF7 [1]) | growth at 10 µM (RXF 393) | growth at 10 µM (MDA-MB-435) | growth at 10 µM (SN12C) | growth at 10 µM (HOP-62) | growth at 10 µM [2] | IC50 (MDA-MB-231 [3]) | IC50 (MDA-MB-231 [4]) | growth at 10 µM (NCI-H226) | growth at 10 µM (786-0) | growth at 10 µM (NCI-H460) | growth at 10 µM [5] | growth at 10 µM (CCRF-CEM) | growth at 10 µM [6] | growth at 10 µM (CAKI-1) | other results
1 | COc1ccc(CCN2COc3c([C@@H](C)CCC=C(C)C)ccc(C)c3C2)cc1OC | -18% | 67% | -29% | -2% | -91% | 6.7 µM | -35% | 3% | 15% | -76% | 33% | 16.3 µM | > 20 µM | 47% | -59% | -58% | -2% | 14% | 10% | 8% | growth at 10 µM (U-251): -47%; growth at 10 µM [7]: 11%; growth at 10 µM (MDA-MB-468): -70%; growth at 10 µM (MCF7 [8]): 4%; growth at 10 µM (SK-MEL-28): -44%; growth at 10 µM [9]: -25%; growth at 10 µM (SW-620): -59%; growth at 10 µM [10]: 21%; growth at 10 µM (K562): 13.1%; growth at 10 µM (HCC 2998): -99%; growth at 10 µM (SK-MEL-5): -96%; growth at 10 µM (SK-MEL-2): -68%; growth at 10 µM (SF-539): 25%; growth at 10 µM (IGROV-1): -44%; IC50 (MDA-MB-231 [11]): 9.5 µM; growth at 10 µM [12]: 19%
2 | CC(C)=CCC[C@H](C)c1ccc(C)c2c1OCN(CCCCC(=O)O)C2 | 102% | 92.7% | 95.1% | 107% | 92.5% | > 20 µM | 102% | 99.4% | 97.6% | 94.6% | 102% | > 50 µM | > 20 µM | 95.7% | 82.6% | 105% | 85.3% | 93.2% | 69.7% | 81% | growth at 10 µM (U-251): 106%; growth at 10 µM [7]: 105%; growth at 10 µM (MDA-MB-468): 87%; growth at 10 µM (MCF7 [8]): 92.5%; growth at 10 µM (SK-MEL-28): 115%; growth at 10 µM [9]: 92.3%; growth at 10 µM (SW-620): 101%; growth at 10 µM [10]: 104%; growth at 10 µM (K562): 87.5%; growth at 10 µM (HCC 2998): 102%; growth at 10 µM (SK-MEL-5): 92%; growth at 10 µM (SK-MEL-2): 84%; growth at 10 µM (SF-539): 91.8%; growth at 10 µM (IGROV-1): 108%; IC50 (MDA-MB-231 [11]): 29.9 µM; growth at 10 µM [12]: 79.7%
3 | CC(C)=CCC[C@H](C)c1ccc(C)c(CNCCCCCO)c1O | 108% | 94.6% | 92.5% | 97.3% | 94.3% | 7.6 µM | 84.6% | 95% | 98% | 88.4% | 90.5% | 10.7 µM | > 20 µM | 99.6% | 87.3% | 94.5% | 86.8% | 96.5% | 54.9% | 75.2% | growth at 10 µM (U-251): 82.9%; growth at 10 µM [7]: 72.9%; growth at 10 µM (MDA-MB-468): 79.8%; growth at 10 µM (MCF7 [8]): 79.4%; growth at 10 µM (SK-MEL-28): 112%; growth at 10 µM [9]: 79.5%; growth at 10 µM (SW-620): 91.9%; growth at 10 µM [10]: 88.4%; growth at 10 µM (K562): 60.2%; growth at 10 µM (HCC 2998): 73%; growth at 10 µM (SK-MEL-5): 84.9%; growth at 10 µM (SK-MEL-2): 97.6%; growth at 10 µM (SF-539): 92.1%; growth at 10 µM (IGROV-1): 91.1%; IC50 (MDA-MB-231 [11]): > 20 µM; growth at 10 µM [12]: 94.2%

Source: ChEMBL document CHEMBL3390836, “Mannich- and LedererManasse-based analogues of the natural product S-(+)-curcuphenol as cancer proliferation and migration inhibitors” (Medchemcomm, 2012)
